Some results are limits rather than exact numbers.

The IC50 is the concentration at which inhibition is half-maximal.

One assay has as its target T1, recombinant CD73 (Homo sapiens, UniProt P21589).
T1 construct: purchased R&D Systems 5795-EN-010
T1 sequence (P21589 27-547 limits assumed): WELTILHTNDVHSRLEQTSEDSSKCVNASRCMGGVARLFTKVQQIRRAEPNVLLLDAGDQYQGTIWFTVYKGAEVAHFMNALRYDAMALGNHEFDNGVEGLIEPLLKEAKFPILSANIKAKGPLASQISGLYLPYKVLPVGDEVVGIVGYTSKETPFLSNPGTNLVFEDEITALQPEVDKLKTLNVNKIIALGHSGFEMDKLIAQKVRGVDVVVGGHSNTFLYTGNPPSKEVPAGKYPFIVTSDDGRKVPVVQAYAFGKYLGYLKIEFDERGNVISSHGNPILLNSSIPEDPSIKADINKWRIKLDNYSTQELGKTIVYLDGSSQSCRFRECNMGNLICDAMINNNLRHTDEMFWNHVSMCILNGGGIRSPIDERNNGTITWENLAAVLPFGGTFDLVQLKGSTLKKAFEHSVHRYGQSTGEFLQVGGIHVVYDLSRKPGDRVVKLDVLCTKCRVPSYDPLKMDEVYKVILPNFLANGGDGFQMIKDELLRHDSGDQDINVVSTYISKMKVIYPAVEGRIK
Kind of assay: Assay 1: Inhibition of the CD73 Enzyme In Vitro.
Settings: not given
Format: biochemical. On the procedure: Serial dilutions of test compounds were incubated with recombinant CD73 and AMP in reaction buffer (25 mM Tris HCl pH7.5, 5 mM MgCl2, 50 mM NaCl, 0.25 mM DTT, 0.005% Triton X-100). The final reaction volume was 25 μL and the final concentrations of recombinant CD73 and AMP were 0.5 nM and 50 μM, respectively. […] After 5 minutes at room temperature, absorbance at 630 nm was determined on a microplate spectrophotometer. The concentration of inorganic phosphate was determined using a phosphate standard curve.
ND indicates not determined.
Take `COC(=O)c1ccccc1-c1ccc(CC(OC[C@H]2O[C@@H](n3cnc4c(N)nc(Cl)nc43)[C@H](O)[C@@H]2O)(C(=O)O)c2ccccc2)cc1` (stereo partly drawn) [Example 46, 2-(((2R,3S,4R,5R)-5-(6-amino-2-chloro-9H-purin-9-yl)-3,4-dihydroxytetrahydrofuran-2-yl)methoxy)-3-(2′-(methoxycarbonyl)-[1,1′-biphenyl]-4-yl)-2-phenylpropanoic acid]: the IC50 is above 50000 nM.
Same read-out and setting: to `Nc1nc(Cl)nc2c1ncn2[C@@H]1O[C@H](COC(Cc2ccc(-c3ccccc3C(=O)O)cc2)(C(=O)O)c2cscn2)C[C@H]1O` (stereo partly drawn) [Example 50, 4′-(2-(((2S,4R,5R)-5-(6-amino-2-chloro-9H-purin-9-yl)-4-hydroxytetrahydrofuran-2-yl)methoxy)-2-carboxy-2-(thiazol-4-yl)ethyl)-[1,1′-biphenyl]-2-carboxylic acid] belongs above 1000 nM.

The assay is the same for the next values; noted with them: soluble recombinant CD73 0.5 nM, AMP 50 μM, 30 minutes at room temperature, Malachite Green, absorbance at 630 nm; read-out: Assay 1 CD73 IC50.
On to `Nc1nc(Cl)nc2c1ncn2[C@@H]1O[C@H](CO[C@](Cc2ccc(-c3ccccc3CC(=O)O)cc2)(C(=O)O)c2cscn2)[C@@H](O)[C@H]1O` (single isomer, unassigned) [Example 6], for which the 50% inhibitory concentration (IC50) is 39 nM.
Take `Nc1nc(Cl)nc2c1ncn2[C@@H]1O[C@H](CO[C@@](Cc2ccc(-c3ccc[nH]c3=O)cc2)(C(=O)O)c2cscn2)[C@@H](O)[C@@H]1F` (single isomer, unassigned) [Example 22]: the IC50 is 2980 nM.
Still for that read-out and setting: to `Nc1nc(Cl)nc2c1ncn2[C@@H]1O[C@H](COC(C(=O)O)c2cscn2)[C@@H](O)[C@@H]1F` (mixture of isomers) [Example 14, 2-(((2R3R,4S,5R)-5-(6-amino-2-chloro-9H-purin-9-yl)-4-fluoro-3-hydroxytetrahydrofuran-2-yl)methoxy)-2-(thiazol-4-yl)acetic acid] belongs 22100 nM; to `Nc1nc(Cl)nc2c1ncn2[C@@H]1O[C@H](CO[C@](Cc2ccc(C(=O)O)cc2)(C(=O)O)c2cscn2)[C@@H](O)[C@@H]1F` (single isomer, unassigned) [Example 15], 296 nM; to `Nc1nc(Cl)nc2c1ncn2[C@@H]1O[C@H](CO[C@](Cc2ccccc2)(C(=O)O)c2cocn2)[C@@H](O)[C@H]1O` (single isomer, unassigned) [Example 35], 290 nM.
Take `Nc1nc(Cl)nc2c1ncn2[C@@H]1O[C@H](COC(Cc2ccccc2)(C(=O)O)c2cc[nH]n2)[C@@H](O)[C@H]1O` (mixture of isomers) [Example 32, 2-(((2R,3S,4R,5R)-5-(6-amino-2-chloro-9H-purin-9-yl)-3,4-dihydroxytetrahydrofuran-2-yl)methoxy)-3-phenyl-2-(1H-pyrazol-3-yl)propanoic acid]: the IC50 was 2060 nM.
Still for that read-out and setting: to `COc1ncccc1-c1ccc(C[C@@](OC[C@H]2O[C@@H](n3cnc4c(N)nc(Cl)nc43)[C@@H](F)[C@@H]2O)(C(=O)O)c2cscn2)cc1` (single isomer, unassigned) [Example 19] belongs 170 nM.
Regarding `Nc1nc(Cl)nc2c1ncn2[C@@H]1O[C@H](CO[C@](Cc2ccc(-c3ccc(C(=O)O)cc3)cc2)(C(=O)O)c2cscn2)[C@@H](O)[C@@H]1F` (single isomer, unassigned) [Example 10], the IC50 was determined as 227 nM.
On the same count and under the same terms, the same measure for `COc1cccc(CO)c1-c1ccc(C[C@@](OC[C@H]2O[C@@H](n3cnc4c(N)nc(Cl)nc43)[C@H](O)[C@@H]2O)(C(=O)O)c2cscn2)cc1` (single isomer, unassigned) [Example 39]: 68 nM; for `Nc1nc(Cl)nc2c1ncn2[C@@H]1O[C@H](COC(Cc2ccc(-c3ccccc3C(=O)O)cc2)(C(=O)O)c2ccsc2)[C@@H](O)[C@H]1O` (mixture of isomers) [Example 49, 4′-(2-(((2R,3S,4R,5R)-5-(6-amino-2-chloro-9H-purin-9-yl)-3,4-dihydroxytetrahydrofuran-2-yl)methoxy)-2-carboxy-2-(thiophen-3-yl)ethyl)-[1,1′-biphenyl]-2-carboxylic acid]: 2270 nM.
`CCCCOc1nc(Cl)nc2c1ncn2[C@@H]1O[C@H](COC(Cc2ccccc2)(C(=O)O)c2cscn2)[C@@H](O)[C@@H]1F` (mixture of isomers) [Example 23, 2-(((2R,3R,4S,5R)-5-(6-butoxy-2-chloro-9H-purin-9-yl)-4-fluoro-3-hydroxytetrahydrofuran-2-yl)methoxy)-3-phenyl-2-(thiazol-4-yl)propanoic acid]: the IC50 came out at 3420 nM.
The same measure, in the same setting: to `Nc1nc(Cl)nc2c1ncn2[C@@H]1O[C@H](CO[C@](Cc2ccc(-c3ccccc3OC(F)(F)F)cc2)(C(=O)O)c2cscn2)[C@@H](O)[C@H]1O` (single isomer, unassigned) [Example 43] belongs 51 nM.
Same read-out and setting: to `Nc1nc(Cl)nc2c1ncn2[C@@H]1O[C@H](CO[C@@](Cc2ccc(-c3ccccc3)cc2)(C(=O)O)c2cscn2)[C@@H](O)[C@@H]1F` (single isomer, unassigned) [Example 9] belongs 2640 nM; to `Nc1nc(Cl)nc2c1ncn2[C@@H]1O[C@H](COC(Cc2ccc(-c3ccccc3)cc2)(C(=O)O)c2cscn2)[C@@H](O)[C@H]1O` (mixture of isomers) [Example 1, 3-([1,1′-biphenyl]-4-yl)-2-(((2R,3S,4R,5R)-5-(6-amino-2-chloro-9H-purin-9-yl)-3,4-dihydroxytetrahydrofuran-2-yl)methoxy)-2-(thiazol-4-yl)propanoic acid], 99 nM.
The same measure, in the same setting: to `N#CCc1ccccc1-c1ccc(C[C@](OC[C@H]2O[C@@H](n3cnc4c(N)nc(Cl)nc43)[C@H](O)[C@@H]2O)(C(=O)O)c2cscn2)cc1` (single isomer, unassigned) [Example 5] belongs 502 nM; to `Nc1nc(Cl)nc2c1ncn2[C@@H]1O[C@H](CO[C@@](Cc2ccc(-c3ccccc3OC(F)(F)F)cc2)(C(=O)O)c2cscn2)[C@@H](O)[C@H]1O` (single isomer, unassigned) [Example 44], 365 nM.
Consider `Nc1nc(Cl)nc2c1ncn2[C@@H]1O[C@H](CO[C@](Cc2ccc(-c3ccc(C(=O)O)cc3)cc2)(C(=O)O)c2cscn2)[C@@H](O)[C@H]1O` (single isomer, unassigned) [Example 2], for which the IC50 is 64 nM.
Still for that read-out and setting: to `N#CCc1ccccc1-c1ccc(C[C@@](OC[C@H]2O[C@@H](n3cnc4c(N)nc(Cl)nc43)[C@H](O)[C@@H]2O)(C(=O)O)c2cscn2)cc1` (single isomer, unassigned) [Example 4] belongs 35 nM.
As for `CS(=O)(=O)Nc1ccccc1-c1ccc(C[C@](OC[C@H]2O[C@@H](n3cnc4c(N)nc(Cl)nc43)[C@H](O)[C@@H]2O)(C(=O)O)c2cscn2)cc1` (single isomer, unassigned) [Example 42], the IC50 is 904 nM.
Consider `CS(=O)(=O)Nc1ccccc1-c1ccc(C[C@@](OC[C@H]2O[C@@H](n3cnc4c(N)nc(Cl)nc43)[C@H](O)[C@@H]2O)(C(=O)O)c2cscn2)cc1` (single isomer, unassigned) [Example 41], for which the IC50 was 43 nM.
Still for that read-out and setting: to `Nc1nc(Cl)nc2c1ncn2[C@@H]1O[C@H](COC(Cc2ccccc2)(C(=O)O)c2cscn2)[C@@H](O)[C@H]1O` (mixture of isomers) [Example 26, 2-(((2R,3S,4R,5R)-5-(6-amino-2-chloro-9H-purin-9-yl)-3,4-dihydroxytetrahydrofuran-2-yl)methoxy)-3-phenyl-2-(thiazol-4-yl)propanoic acid] belongs 400 nM.
For `Nc1nc(Cl)nc2c1ncn2[C@@H]1O[C@H](CO[C@](Cc2ccc(-c3ccccc3C(=O)O)cc2)(C(=O)O)c2ccccc2)[C@@H](O)[C@H]1O` (single isomer, unassigned) [Example 47], the IC50 came to 4220 nM.
The same measure, in the same setting: to `Nc1nc(Cl)nc2c1ncn2[C@@H]1O[C@H](COC(Cc2cccc(C(=O)O)c2)(C(=O)O)c2cscn2)[C@@H](O)[C@@H]1F` (mixture of isomers) [Example 17, 3-(2-(((2R,3R,4S,5R)-5-(6-amino-2-chloro-9H-purin-9-yl)-4-fluoro-3-hydroxytetrahydrofuran-2-yl)methoxy)-2-carboxy-2-(thiazol-4-yl)ethyl)benzoic acid] belongs 740 nM.
As to `Nc1nc(Cl)nc2c1ncn2[C@@H]1O[C@H](COC(Cc2ccc(-c3ccccc3)cc2)(C(=O)O)c2csc(Cl)n2)[C@@H](O)[C@H]1O` (mixture of isomers) [Example 27, 3-([1,1′-biphenyl]-4-yl)-2-(((2R,3S,4R,5R)-5-(6-amino-2-chloro-9H-purin-9-yl)-3,4-dihydroxytetrahydrofuran-2-yl)methoxy)-2-(2-chlorothiazol-4-yl)propanoic acid], the IC50 came to 106 nM.
Consider `Cc1nc([C@@](Cc2ccc(-c3ccccc3)cc2)(OC[C@H]2O[C@@H](n3cnc4c(N)nc(Cl)nc43)[C@H](O)[C@@H]2O)C(=O)O)cs1` (single isomer, unassigned) [Example 29], for which the IC50 turned out to be 3220 nM.
